US20130184302A1, “METHODS FOR TREATING IRRITABLE BOWEL SYNDROME (IBS) AND INFECTIONS” (priority 2011, published 2013)

Key:
Type in all cases: in vivo, human
subjects with IBS = test: Analysis of two studies after 3 months: global IBS symptoms, abdominal pain, bloating responders; settings: for Global IBS symptoms: at least 2 out of 4 weeks adequate relief during weeks 3 through 6 (weekly question): 550 mg TID 14 days
From the text: A measure of efficacy is based on subjects' answers to the Weekly Subject Global Assessment (SGA) questions over the study duration in relation to their IBS symptoms.
The study endpoints of the studies were Global IBS symptoms and AUC in abdominal pain during the study.
The primary and secondary endpoints evaluated in this study were the effect of treatment on the percentage of subjects who reported adequate relief of Global IBS symptoms, reduction in abdominal pain and the adequate relief of IBS symptom of bloating.

[1] = system: C. difficile infection (CDI); test: CDI trial rifaximin 400 mg TID vs vancomycin 125 mg QID: clinical success at Test of Cure
Experimental: Criteria for entry into the trial were: • Age>=18 years old; • Had acute diarrhea at screening defined as >=3 unformed stools in the last 24 hours and at least one sign of enteric infection (fever, nausea, lose of appetite, vomiting, severe abdominal pain/discomfort); and • a positive C. diff stool toxin assay
The primary efficacy endpoint of the study was defined as the proportion of subjects achieving clinical success. Specifically, clinical success was defined as the absence of severe abdominal pain at Test of Cure (TOC), absence of fever (<38° C.) at TOC, and <3 unformed stools for two consecutive days at TOC.
The non-inferiority margin for the primary endpoint was defined as lower bound of 95% CI of delta above −15%.
Clinical success was defined as the: Absence of severe abdominal pain at TOC, absence of fever (<38° C.) at TOC, and <3 unformed stools for two consecutive days at TOC. Test of cure defined as Day 14+/−1 day.

[2] = system: C. difficile infection (CDI); test: CDI trial: enteric symptoms at TOC
From the text: Table 41 sets forth a summary of the enteric symptoms at TOC.

[3] = system: C. difficile infection (CDI); test: CDI trial: continuing illnesses
[4] = system: C. difficile infection (CDI); test: CDI trial: efficacy adjusting for concomitant medication usage
From the text: Table 48 sets forth the efficacy adjusting for concomitant medication usage.

[5] = at TOC (Day 14+/−1), Rifaximin N = 117, Vancomycin N = 115
[6] = Rifaximin N = 108, Vancomycin N = 111
[7] = Rifaximin N = 117, Vancomycin N = 115
[8] = Rifaximin N = 109, Vancomycin N = 112

`CO[C@H]1/C=C/O[C@@]2(C)Oc3c(C)c(O)c4c(O)c(c5c(nc6cc(C)ccn65)c4c3C2=O)NC(=O)/C(C)=C\C=C\[C@H](C)[C@H](O)[C@@H](C)[C@@H](O)[C@@H](C)[C@H](OC(C)=O)[C@@H]1C` [Rifaximin, (2S,16Z,18E,20S,21S,22R, 23R,24R,25S,26S,27S,28E)-5,6,21,23,25 Pentahydroxy-27-methoxy-2,4,11,16,20,22,24,26-octamethyl-2,7-(epoxypentadeca-(1,11,13)trienimino) benzofuro (4,5-e) pyrido(1,2,-a) benzimidazole-1,15(2H)-dione,25-acetate] was tested, and the “Responders: Abdominal Pain reduction of 2 point in median” value (subjects with IBS; Study [1]) was 33% vs 37%, the “Responders: Abdominal Pain reduction of 3 point in mean” value (subjects with IBS; Study [1]) was 6% vs 7% and the “Responders: Abdominal Pain reduction of 3 point in median” value (subjects with IBS; Study [1]) was 19% vs 22%. For the same molecule, the “Responders: Abdominal pain reduction of 1 point in mean” value (subjects with IBS; Study [1]) was 41% vs 52%, the “Responders: Overall reduction of mean weekly abdominal pain by > = 25%” value (subjects with IBS; Study [1]) was 47% vs 56% and the “Responders: Overall reduction of mean weekly abdominal pain by > = 50%” value (subjects with IBS; Study [1]) was 28% vs 36%. The “Responders: Overall reduction of mean weekly abdominal pain by > = 75%” value (subjects with IBS; Study [1]) was 10% vs 14%, the “Responders: Overall reduction of median weekly abdominal pain by > = 25%” value (subjects with IBS; Study [1]) was 52% vs 63% and the “Responders: Overall reduction of median weekly abdominal pain by > = 50%” value (subjects with IBS; Study [1]) was 34% vs 44%. The “Responders: Overall reduction of median weekly abdominal pain by > = 75%” value (subjects with IBS; Study [1]) was 19% vs 23%, the “Responders: Abdominal pain reduction of 1 point in median” value (subjects with IBS; Study [1], at least 2 weeks during PEP) was 52% vs 63% and the “Responders: Daily abdominal pain <2” value (subjects with IBS; Study [1], at least 50% of days in a week for at least 2 weeks during PEP) was 32% vs 40%. For the same molecule, the “Global IBS symptoms: at least 2 out of 4 weeks adequate relief during weeks 3 through 6 (weekly question)” value (“Global IBS symptoms: at least 2 out” below) (subjects with IBS; first column (Study 1), second figure of 'x vs y') was 41%, the “Global IBS symptoms: at least 2 out” value (subjects with IBS; second column (Study 2)) was 41% and the “Global IBS symptoms: at least 2 out” value (subjects with IBS; third column (Combined)) was 41%. The “Clinical Success: Treatment Difference” value ([1]; Rifaximin vs Vancomycin, at TOC) was −6.2%, the “Clinical Success: Yes, number of subjects” value ([1]; at TOC (Day 14+/−1), Rifaximin 400 mg TID N = 117, Vancomycin 125 mg QID N = 115) was 67 and the “Clinical Success: No, number of subjects” value [1, 5] was 50. For the same molecule, the “Clinical Success: No, percent of subjects” value [1, 5] was “(43%)”, the “Clinical Success: Yes, percent of subjects” value [1, 5] was “(57%)” and the “Diarrhea: No, number of subjects” value [2, 6] was 86. For the same molecule, the “Diarrhea: No, percent of subjects” value [2, 6] was “(80%)”, the “Diarrhea: Yes, number of subjects” value [2, 6] was 22 and the “Diarrhea: Yes, percent of subjects” value [2, 6] was “(20%)”. For the same molecule, the “Fever: No, number of subjects” value [2, 6] was 98, the “Fever: No, percent of subjects” value [2, 6] was “(91%)” and the “Fever: Yes, number of subjects” value [2, 6] was 10. The “Fever: Yes, percent of subjects” value [2, 6] was “(9%)”, the “Severe Abdominal Pain/Discomfort: No, number of subjects” value [2, 6] was 80 and the “Severe Abdominal Pain/Discomfort: No, percent of subjects” value [2, 6] was “(74%)”. The “Severe Abdominal Pain/Discomfort: Yes, number of subjects” value [2, 6] was 28, the “Severe Abdominal Pain/Discomfort: Yes, percent of subjects” value [2, 6] was “(26%)” and the “Diarrhea: Treatment Difference” value ([2]; Rifaximin vs Vancomycin) was −1.5%. The “Fever: Treatment Difference” value ([2]; Rifaximin vs Vancomycin) was −7.5%, the “Severe Abdominal Pain/Discomfort: Treatment Difference” value ([2]; Rifaximin vs Vancomycin) was −11.5% and the “Continuing Illness: No, number of subjects” value [3, 7] was 90. The “Continuing Illness: No, percent of subjects” value [3, 7] was “(77%)”, the “Continuing Illness: Yes, number of subjects” value [3, 7] was 27 and the “Continuing Illness: Yes, percent of subjects” value [3, 7] was “(23%)”. The “Continuing Illness: Treatment Difference” value ([3]; Rifaximin vs Vancomycin) was −9.2%, the “Diarrhea: No, number of subjects” value [4, 8] was 71 and the “Diarrhea: No, percent of subjects” value [4, 8] was “(65%)”. The “Diarrhea: Yes, number of subjects” value [4, 8] was 38, the “Diarrhea: Yes, percent of subjects” value [4, 8] was “(35%)” and the “Clinical Success: No, number of subjects” value [4, 7] was 59. For the same molecule, the “Clinical Success: No, percent of subjects” value [4, 7] was “(50%)”, the “Clinical Success: Yes, number of subjects” value [4, 7] was 58 and the “Clinical Success: Yes, percent of subjects” value [4, 7] was “(50%)”. The “Clinical Success: Treatment Difference” value ([4]; Rifaximin vs Vancomycin) was −10.4% and the “Diarrhea: Treatment Difference” value ([4]; Rifaximin vs Vancomycin) was −8.1%.
